Reference: US11191874B2, “Biomaterials for neuronal implants and use of said biomaterials in the diagnosis and therapy of neuronal diseases” (Albert-Ludwigs-U[…], priority 2014, dated 2021)
Entries after “also recorded” stand apart in the source; their conditions may differ. Where no end group is shown, it is not given here.

Columns and labels:
GMB tumor spheroids = experiment: U-87 spheroid Matrigel invasion assay; type: cell-based; conditions: GsMTx4 in culture media, 3D matrix
Experimental: Spheroids (which resemble a GBM tumor in vitro) are formed via the hanging drop procedure. For this, cells were seeded into a carboxymethylcellulose solution (with very high viscosity) and pipetted on the inner side of the lid of a cell culture plate. After reversing the lid and putting it back onto the cell culture plate, the cells are hanging in a drop of carboxymethylcellulose. Because of the high viscosity of the media and no possibility to attach, the cells form spheroids. […] During incubation cells start migrating out of the spheroid and invading the 3D matrix. The higher the invasive potential of the cells, the more they will invade the 3D matrix.

hippocampal neurons = experiment: Calcium sensitive FURA-2 imaging of hippocampal neurons after KCl depolarization; type: cell-based, rat; conditions: GsMTx4, KCl depolarization
Experimental: Calcium sensitive imaging: Intracellular calcium levels were measured with the cell permeable probe FURA-2-acetoxymethyl ester (Invitrogen Life Technologies GmbH). Cells were exposed to 5 μM FURA-2-AMin DMSO (final concentration of 0.2%) for 45 minutes in a humidified incubator at 37° C. Increase in intracellular calcium levels following depolarization with 50 mM KCl was analyzed by the change in the absorption and emission spectra of FURA-2 upon Ca^2+ binding using a custom-built perfusion chamber mounted to a Zeiss Observer Z1 and the ZEN blue software (Zeiss AG, Germany).The rate of intracellular Ca^2+ increase was calculated as the slope of the linear portion of the increase in FURA-2 intensity.

[1] = tested on: rat hippocampal neurons and astrocytes; experiment: Neuron-astrocyte association in mixed primary hippocampal cultures; type: cell-based; conditions: GsMTx4 5 μM, smooth glass substrates
From the text: The inventors therefore evaluated the response of mixed primary cultures of rat hippocampal neurons and astrocytes to the different roughness regimes.
An also remarkable finding was that nanoroughness appeared to modulate the relationship, and dependency of neurons on astrocytes. […] After 5 days, the percent neurons that were associated with astrocytes on the 32 nm Rq surface was around 15%, which was 1.5-2 fold lower than those on other Rq's, which ranged from 20-40%, and 6 fold lower than that on the smooth glass substrate (FIG. 4c). That is, in comparison to the other Rq's, over twice as many neurons on 32 nm Rq surface were surviving independently of astrocytes. At 6 weeks however, the percent of neurons that were surviving independently of astrocytes on the 32 nm Rq was over 6 fold greater in comparison to the other Rq's. While over 90% of neurons were associated with astrocytes on other roughnesses, only 15% of neurons were associated with astrocytes on 32 nm Rq (FIG. 4d). […]
Cell density/composition analysis: In order to analyze the cell density and composition of mixed neuron/astrocyte cultures on the different substrates at the end of the experiments, MAP-2^+, GFAP^+ and Tuj-1^+ cells were counted in 4 separately isolated cultures in 10 random image sections and on two different substrates of each isolated culture.

Substance: GsMTx4 (GCLEFWWKCNPNDDKCCRPKLKCSKLFKLCNFSF; ends and bridges not checked; cysteine pairing not given here)
- formation of sprouts from tumor spheroids (invasiveness) (GMB tumor spheroids): significantly reduced; also recorded: less invasive potential
- FURA-2 intensity profile and rate of calcium influx upon depolarization, smooth glass versus Rq=32 nm, upon inhibition of Piezo-1 (hippocampal neurons): is lost upon inhibition of Piezo-1; also recorded: identical
- neuron-astrocyte coupling upon inhibition of Piezo-1 (FAM38A) [1]: neurons decouple from astrocytes even on smooth glass substrates; also recorded: decoupling of hippocampal neurons from astrocytes
